*: point of attachment. Biotin = O=C1N[C@H]2[C@H](CS[C@H]2CCCCC(=O)*)N1
How the values were obtained:
normal mouse serum = settings: 37° C.

| Substance | cleaved bond (normal mouse serum; up to 6 h) | cleaved bond (normal mouse serum; up to 24 h) | other results |
| --- | --- | --- | --- |
| Biotin-CAVPNLRGDLQVLAQKVCRTK-NH2 (cysteine pairing not given here) | C18-arginine19 |  |  |
| Biotin-CAVPNLRGDLQVLAQKVCRTK-NH2 (cysteine pairing not given here) [C1C18 DFBP] | C18-arginine19, 2 h |  |  |
| Biotin-NCVPNLRGDLQVLAQKVCRDTKAD-NH2 (cysteine pairing not given here) |  | Asn1-C2 |  |
| Biotin-NCVPNLRGDLQVLAQKVCRTK-NH2 (cysteine pairing not given here) | C18-arginine19, 2 h |  |  |
| acetyl-NCVPhNLRGDLQVLADQKVCRDTKD-biotin [C2C18 Ph AD RDTKD DFBP] |  |  | cell surface half-life (internalization) (BxPC-3 cells): 11.93 min |
| biotin-NCVPhNLRGDLQVLAQKVCRDTKAD-amide |  | Asn1-C2 |  |

From US20240209034A1 (priority 2021, published 2024)
